Where “and” joins values, the source holds several entries; their conditions need not be identical. Equal entries are not always repeated. Toxic doses and inconclusive results are not listed. Where a SMILES comes first, the peptide text is derived from it. [ ]: non-standard residue; d: D form. The star is where a group is joined. Cbz = O=C(OCc1ccccc1)*; Nva = CCC[CH](N)C(=O)O
Tested on: B6C3F1 mice, B16 melanoma ip, median survival T/C
Assay: NCI In Vivo Anticancer Drug Screen. Data for tumor model B16 Melanoma (intraperitoneal) in B6C3F1 mice
Details: endpoint: median survival time, higher = longer survival
Procedure, shortened: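 Transplantable tumor in mice; treated vs vehicle control groups; survival or tumor size measured; value = T/C ratio.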

[1] = dose: 60.0 mg/kg/injection, schedule: Q01DX009 (ip), vehicle: water
[2] = dose: 100.0 mg/kg/injection, schedule: Q01DX009 (ip), vehicle: water
[3] = dose: 6.25 mg/kg/injection, schedule: Q01DX009 (ip), vehicle: saline with Tween-80
[4] = dose: 12.5 mg/kg/injection, schedule: Q01DX009 (ip), vehicle: saline with Tween-80
[5] = dose: 25.0 mg/kg/injection, schedule: Q01DX009 (ip), vehicle: saline with Tween-80
[6] = dose: 50.0 mg/kg/injection, schedule: Q01DX009 (ip), vehicle: saline with Tween-80
[7] = dose: 100.0 mg/kg/injection, schedule: Q01DX009 (ip), vehicle: saline with Tween-80
[8] = dose: 200.0 mg/kg/injection, schedule: Q01DX009 (ip), vehicle: saline with Tween-80
[9] = dose: 100.0 mg/kg/injection, schedule: Q01DX009 (ip), vehicle: saline
[10] = dose: 3.12 mg/kg/injection, schedule: Q01DX009 (ip), vehicle: saline with Tween-80
[11] = dose: 100.0 mg/kg/injection, schedule: Q01DX009 (ip), vehicle: Klucel (hydroxypropylcellulose) (HPC)
[12] = dose: 200.0 mg/kg/injection, schedule: Q01DX009 (ip), vehicle: Klucel (hydroxypropylcellulose) (HPC)
[13] = dose: 400.0 mg/kg/injection, schedule: Q01DX009 (ip), vehicle: Klucel (hydroxypropylcellulose) (HPC)

O=C(NO)c1ccc(O)c(O)c1
T/C (dose: 22.5 mg/kg/injection, schedule: Q03HX024 (ip), vehicle: water): 106 % of control
T/C (dose: 25.0 mg/kg/injection, schedule: Q01DX009 (ip), vehicle: water): 100 % of control
T/C (dose: 45.0 mg/kg/injection, schedule: Q03HX024 (ip), vehicle: water): 111 % of control
T/C (dose: 50.0 mg/kg/injection, schedule: Q01DX009 (ip), vehicle: water): 109 % of control and 100 % of control
T/C [1]: 110 % of control
T/C (dose: 90.0 mg/kg/injection, schedule: Q03HX024 (ip), vehicle: water): 116 % of control
T/C [2]: 111 % of control and 116 % of control and 99 % of control
T/C (dose: 116.0 mg/kg/injection, schedule: Q01DX009 (ip), vehicle: other): 116 % of control
T/C (dose: 120.0 mg/kg/injection, schedule: Q01DX009 (ip), vehicle: water): 110 % of control
T/C (dose: 176.0 mg/kg/injection, schedule: Q01DX009 (ip), vehicle: other): 120 % of control
T/C (dose: 176.0 mg/kg/injection, schedule: Q01DX009 (ip), vehicle: water): 120 % of control
T/C (dose: 180.0 mg/kg/injection, schedule: Q03HX024 (ip), vehicle: water): 119 % of control
T/C (dose: 200.0 mg/kg/injection, schedule: Q01DX009 (ip), vehicle: water): 112 % of control and 123 % of control
T/C (dose: 270.0 mg/kg/injection, schedule: Q03HX024 (ip), vehicle: water): 87 % of control

Nc1ncnc2c1ncn2C1C=C(CO)C(O)C1O (stereo not given)
T/C (dose: 0.5 mg/kg/injection, schedule: Q01DX009 (ip), vehicle: saline): 97 % of control and 106 % of control
T/C (dose: 1.0 mg/kg/injection, schedule: Q01DX009 (ip), vehicle: saline): 99 % of control and 103 % of control
T/C (dose: 2.0 mg/kg/injection, schedule: Q01DX009 (ip), vehicle: saline): 102 % of control and 103 % of control
T/C (dose: 4.0 mg/kg/injection, schedule: Q01DX009 (ip), vehicle: saline): 110 % of control and 105 % of control

C/C=C(\C)c1cc(=O)c2c(C)cc3c(c2o1)C(=O)c1c(O)c(C2CC(C)(N(C)C)C(OC(C)=O)C(C)O2)cc(C2CC(N(C)C)C(O)C(C)O2)c1C3=O (stereo not given)
T/C (dose: 0.15 mg/kg/injection, schedule: Q01DX009 (ip), vehicle: saline): 110 % of control
T/C (dose: 0.15 mg/kg/injection, schedule: Q01DX009 (ip), vehicle: suspension in saline): 102 % of control
T/C (dose: 0.31 mg/kg/injection, schedule: Q01DX009 (ip), vehicle: suspension in saline): 114 % of control
T/C (dose: 0.62 mg/kg/injection, schedule: Q01DX009 (ip), vehicle: suspension in saline): 109 % of control

C=C(C)CNC1=C(C)C(=O)C2=C(C1=O)[C@H](COC(N)=O)[C@]1(OC)[C@@H]3N[C@@H]3CN21
T/C (dose: 0.5 mg/kg/injection, schedule: Q01DX001 (ip), vehicle: distilled water + Tween-80): 122 % of control
T/C (dose: 4.0 mg/kg/injection, schedule: Q01DX001 (ip), vehicle: distilled water + Tween-80): 160 % of control
T/C (dose: 8.0 mg/kg/injection, schedule: Q01DX001 (ip), vehicle: distilled water + Tween-80): 186 % of control
T/C (dose: 16.0 mg/kg/injection, schedule: Q01DX001 (ip), vehicle: distilled water + Tween-80): 226 % of control

O=C(Nc1ccc(Cl)c(Cl)c1)Nc1c(Oc2ccc(Cl)c(Cl)c2)ccc(Cl)c1S(=O)(=O)O
T/C [3]: 99 % of control
T/C [4]: 101 % of control
T/C [5]: 97 % of control
T/C [6]: 99 % of control
T/C [7]: 97 % of control
T/C [8]: 99 % of control

COc1ccc(OCC(O)CN2CCN(c3ccc(Cl)cc3)CC2)cc1 (stereo not given)
T/C [4]: 122 % of control
T/C [5]: 122 % of control
T/C [6]: 87 % of control
T/C [7]: 89 % of control and 96 % of control

COc1cccc2c1C(=O)c1c(O)c3c(c(O)c1C2=O)C[C@@](O)(/C(C)=N/NC(N)=S)C[C@@H]3OC1CC(N)C(O)C(C)O1 (stereo not given in full)
T/C (dose: 12.5 mg/kg/injection, schedule: Q01DX001 (ip), vehicle: water): 155 % of control and 166 % of control
T/C (dose: 25.0 mg/kg/injection, schedule: Q01DX001 (ip), vehicle: water): 185 % of control and 202 % of control
T/C (dose: 50.0 mg/kg/injection, schedule: Q01DX001 (ip), vehicle: water): 185 % of control and 220 % of control
T/C (dose: 100.0 mg/kg/injection, schedule: Q01DX001 (ip), vehicle: water): 201 % of control

CC(C)=CCN1C(=O)c2ccccc2C1=O
T/C [9]: 104 % of control
T/C (dose: 200.0 mg/kg/injection, schedule: Q01DX009 (ip), vehicle: saline): 102 % of control
T/C (dose: 400.0 mg/kg/injection, schedule: Q01DX009 (ip), vehicle: saline): 94 % of control

CCC1(O)C(=O)OCc2c1cc1n(c2=O)Cc2cc3ccccc3nc2-1 (stereo not given)
T/C (dose: 0.75 mg/kg/injection, schedule: Q01DX009 (ip), vehicle: other): 156 % of control
T/C (dose: 1.5 mg/kg/injection, schedule: Q01DX009 (ip), vehicle: other): 165 % of control

COc1cc(O)c2c(O)c3c(c4c2c1[C@]1(C4)C(C)=CCCC1(C)C)[C@H](O)[C@@]1(O)CC(=O)C(C(N)=O)=C(O)[C@@]1(O)C3=O
T/C (dose: 1.56 mg/kg/injection, schedule: Q01DX009 (ip), vehicle: saline with Tween-80): 90 % of control
T/C [10]: 106 % of control
T/C [3]: 117 % of control

ClC(Cl)(Cl)Sn1cccn1
T/C [10]: 103 % of control
T/C [3]: 87 % of control
T/C (dose: 50.0 mg/kg/injection, schedule: Q01DX009 (ip), vehicle: saline): 87 % of control

O=S(=O)(c1ccccc1)N1CN2CCN(C2)C1
T/C [4]: 96 % of control
T/C [5]: 94 % of control
T/C [6]: 108 % of control
T/C [7]: 112 % of control
T/C [8]: 119 % of control
T/C (dose: 400.0 mg/kg/injection, schedule: Q01DX009 (ip), vehicle: saline with Tween-80): 122 % of control

O=C(O)CNC(=O)OCC1c2ccccc2-c2ccccc21
T/C [11]: 93 % of control
T/C [12]: 87 % of control
T/C [13]: 86 % of control

CN1CCN(CN2C(=O)C3C4C=CC(C3C2=O)C2C3C(=O)N(CN5CCN(C)CC5)C(=O)C3C42)CC1 (stereo not given)
T/C (dose: 16.1 mg/kg/injection, schedule: Q01DX009 (ip), vehicle: water): 103 % of control
T/C (dose: 21.6 mg/kg/injection, schedule: Q01DX009 (ip), vehicle: water): 104 % of control
T/C (dose: 26.8 mg/kg/injection, schedule: Q01DX009 (ip), vehicle: water): 98 % of control
T/C (dose: 36.0 mg/kg/injection, schedule: Q01DX009 (ip), vehicle: water): 102 % of control
T/C (dose: 44.7 mg/kg/injection, schedule: Q01DX009 (ip), vehicle: water): 107 % of control
T/C [1]: 104 % of control
T/C (dose: 74.5 mg/kg/injection, schedule: Q01DX009 (ip), vehicle: water): 103 % of control
T/C [2]: 120 % of control

CCOC(=O)N1CCN(CCCCCOc2ccccc2C2CCCCC2)CC1
T/C [4]: 108 % of control
T/C [5]: 96 % of control
T/C [6]: 87 % of control

Cc1ccc2nc(-c3ccc4nc(-c5ccc(N=Nc6ccc(-c7nc8ccc(-c9nc%10ccc(C)c(S(=O)(=O)O)c%10s9)cc8s7)cc6)cc5)sc4c3)sc2c1S(=O)(=O)O
T/C (dose: 12.5 mg/kg/injection, schedule: Q01DX009 (ip), vehicle: saline): 87 % of control
T/C (dose: 25.0 mg/kg/injection, schedule: Q01DX009 (ip), vehicle: saline): 86 % of control
T/C [9]: 88 % of control

CC1=CC2C(O)(CC(CO)=CC3C4C(C)(C)C4(OC(=O)c4ccccc4)C(OC(=O)c4ccccc4)C(C)C32O)C1=O (stereo not given)
T/C (dose: 0.13 mg/kg/injection, schedule: Q01DX009 (ip), vehicle: saline with Tween-80): 98 % of control
T/C (dose: 0.25 mg/kg/injection, schedule: Q01DX009 (ip), vehicle: saline with Tween-80): 90 % of control
T/C (dose: 0.5 mg/kg/injection, schedule: Q01DX009 (ip), vehicle: saline with Tween-80): 93 % of control
T/C (dose: 1.0 mg/kg/injection, schedule: Q01DX009 (ip), vehicle: saline with Tween-80): 95 % of control
T/C (dose: 2.0 mg/kg/injection, schedule: Q01DX009 (ip), vehicle: saline with Tween-80): 90 % of control

O=C1N[C@H]2[C@H](CS[C@H]2CCCCC(=O)N(CCP(c2ccccc2)c2ccccc2)CCP(c2ccccc2)c2ccccc2)N1
T/C (dose: 25.0 mg/kg/injection, schedule: Q01DX009 (ip), vehicle: Klucel (hydroxypropylcellulose) (HPC)): 110 % of control and 97 % of control
T/C (dose: 50.0 mg/kg/injection, schedule: Q01DX009 (ip), vehicle: Klucel (hydroxypropylcellulose) (HPC)): 109 % of control and 101 % of control
T/C [11]: 105 % of control
T/C [12]: 113 % of control
T/C [13]: 101 % of control

O=C(Nc1cccc(Cl)c1)C1CCCC1=Nc1cccc(Cl)c1 (stereo not given)
T/C [6]: 99 % of control
T/C [7]: 96 % of control
T/C [8]: 91 % of control

CCCC(NC(=O)OCc1ccccc1)C(=O)NC(CC(C)C)C(=O)O (stereo not given) (Cbz-[Nva]-Leu-OH; configuration not given here)
T/C [11]: 104 % of control
T/C [12]: 104 % of control
T/C [13]: 96 % of control
